Assay results as given in patent US6441195B1, “Substituted sulphonylamino(thio) carbonyl compounds” (Bayer Aktiengesellschaft, priority 1995, dated 2002).

What was measured:
Assay type in all cases: in vivo
[1] = tested on: Matricaria; assay: Pre-emergence test/Greenhouse, Matricaria; conditions: after three weeks
How it was run: (§1)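 Emulsifier-formulated compound applied by soil watering ~24 h after sowing; damage scored at three weeks as % of untreated control.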

[2] = tested on: weeds; assay: Pre-emergence test (greenhouse), activity against weeds; conditions: in words
How it was run: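 Three weeks after treatment, % damage relative to untreated plants is scored, 0% meaning no effect. Seeds in normal soil received, roughly one day post-sowing, an aqueous dilution of an acetone/emulsifier concentrate, with the rate per unit area, not concentration, being the relevant dose.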

[3] = tested on: Solanum; assay: Pre-emergence test/Greenhouse, Solanum; conditions: after three weeks
How it was run: as §1

[4] = tested on: Ambrosia; assay: Pre-emergence test/Greenhouse, Ambrosia; conditions: after three weeks
How it was run: as §1

[5] = tested on: Sorghum; assay: Pre-emergence test/Greenhouse, Sorghum; conditions: after three weeks
Experimental: (§2) To produce a suitable preparation of the active compound, 1 part by weight of active compound is mixed with the stated amount of solvent, the stated amount of emulsifier is added and the concentrate is diluted with water to the desired concentration.
(§3) Seeds of the test plants are sown in normal soil. After about 24 hours, the soil is watered with the preparation of active compound. Advantageously, the amount of water per unit area is kept constant. The active compound concentration in the preparation is not important, only the active compound appliation rate per unit area matters.
(§4) After three weeks, the degree of damage to the plants is rated in % damage in comparison to the development of the untreated control.
(§5) 0%=no action (like untreated control)

[6] = tested on: Soya beans; assay: Pre-emergence test/Greenhouse, Soya beans; conditions: in vivo
Experimental: as §2, §3, §4, §5

[7] = tested on: Poa; assay: Pre-emergence test/Greenhouse, Poa; conditions: after three weeks
How it was run: as §1

[8] = tested on: Lolium; assay: Pre-emergence test/Greenhouse, Lolium; conditions: after three weeks
How it was run: as §1

[9] = tested on: Maize; assay: Pre-emergence test/Greenhouse, Maize; conditions: in vivo
How it was run: as §1

Row | Structure (SMILES) | degree of damage to the plants (% damage vs untreated control), Matricaria ([1]; 60 g of ai./ha) | activity against weeds [2] | degree of damage to the plants (% damage vs untreated control), Solanum ([3]; 60 g of ai./ha) | degree of damage to the plants (% damage vs untreated control), Ambrosia ([4]; 60 g of ai./ha) | degree of damage to the plants (% damage vs untreated control), Sorghum ([5]; 60 g of ai./ha) | degree of damage to the plants (% damage vs untreated control), Soya beans [6] | degree of damage to the plants (% damage vs untreated control), Poa ([7]; 60 g of ai./ha) | degree of damage to the plants (% damage vs untreated control), Lolium ([8]; 60 g of ai./ha) | degree of damage to the plants (% damage vs untreated control), Matricaria ([1]; 125 g of ai./ha) | degree of damage to the plants (% damage vs untreated control), Solanum ([3]; 125 g of ai./ha) | degree of damage to the plants (% damage vs untreated control), Maize [9] | degree of damage to the plants (% damage vs untreated control), Sorghum ([5]; 125 g of ai./ha) | degree of damage to the plants (% damage vs untreated control), Lolium ([8]; 125 g of ai./ha) | degree of damage to the plants (% damage vs untreated control), Matricaria ([1]; 15 g of ai./ha) | degree of damage to the plants (% damage vs untreated control), Solanum ([3]; 15 g of ai./ha) | degree of damage to the plants (% damage vs untreated control), Ambrosia ([4]; 15 g of ai./ha) | degree of damage to the plants (% damage vs untreated control), Poa ([7]; 15 g of ai./ha) | degree of damage to the plants (% damage vs untreated control), Lolium ([8]; 15 g of ai./ha) | degree of damage to the plants (% damage vs untreated control), Ambrosia ([4]; 125 g of ai./ha) | degree of damage to the plants (% damage vs untreated control), Poa ([7]; 125 g of ai./ha)
1 | CCOc1nn(C(=O)NS(=O)(=O)c2c(C)cccc2C(=O)OC(C)C)c(=O)n1CC [Example 43] | 95% | very strong activity against weeds | 95% | 95% | 80% | 10% | 95% | 95% | – | – | – | – | – | – | – | – | – | – | – | –
2 | CCOn1c(CC)nn(C(=O)NS(=O)(=O)c2c(C)cccc2C(=O)OC)c1=O [Example 155] | 80% | very strong activity against weeds | 95% | 90% | 95% | 40% | 95% | 95% | – | – | – | – | – | – | – | – | – | – | – | –
3 | Cc1csc(C(=O)OC(C)C)c1S(=O)(=O)NC(=O)n1nc(OC(C)C)n(C)c1=O [Example 84] | – | very strong activity against weeds | – | – | – | 30% | – | – | 95% | 100% | 5% | 90% | 95% | – | – | – | – | – | – | –
4 | CCOc1nn(C(=O)NS(=O)(=O)c2c(C)csc2C(=O)OC(C)C)c(=O)n1C [Example 76] | 100% | very strong activity against weeds | 95% | – | 95% | 30% | – | 95% | – | – | 0% | – | – | – | – | – | – | – | – | –
5 | C=CCOc1nn(C(=O)NS(=O)(=O)c2c(C)cccc2C(=O)OC)c(=O)n1C1CC1 [Example 147] | – | very strong activity against weeds | – | – | – | 0% | – | – | – | – | 30% | – | – | 70% | 80% | 70% | 90% | 95% | – | –
6 | COC(=O)c1cccc(C)c1S(=O)(=O)NC(=O)n1nc(OCC2CC2)n(C)c1=O [Example 167] | 95% | very strong activity against weeds | 90% | 90% | 95% | 30% | 95% | 80% | – | – | – | – | – | – | – | – | – | – | – | –
7 | COC(=O)c1cccc(C)c1S(=O)(=O)NC(=O)n1nc(OCC2CC2)n(C2CC2)c1=O [Example 172] | – | very strong activity against weeds | – | – | – | 60% | – | – | 95% | 95% | – | 90% | 90% | – | – | – | – | – | 90% | 95%
8 | CCn1c(OC)nn(C(=O)NS(=O)(=O)c2c(C)csc2C(=O)OC)c1=O [Example 37] | 95% | very strong activity against weeds | 90% | 80% | – | 10% | 70% | 90% | – | – | 10% | – | – | – | – | – | – | – | – | –
